Assays:
[1] = tested on: OVX rats with osseous defect in the epiphyseal area of the tibia; assay: Recovery promoting effect in osseous defect of the tibia in OVX rats, 3D CTR (Example 5); format: in vivo, Wistar rats; conditions: one month
Method: Animal experiments were conducted using ovariectomized animals (OVX). The animals used were 48 female Wistar rats with body weight of approximately 350 g. They were used in the experiments after being preliminarily reared on standard feed (CE-2 manufactured by CLEA Japan, Inc.) for one week after undergoing ovariectomy. All experiments were approved by the Animal Experiment Ethics Committee of CLEA Japan, Inc. and were conducted according to the policies thereof. The standard feed CE-2 manufactured by CLEA Japan, Inc. contains 1.06 g of calcium per 100 g of the feed as calcium carbonate and calcium iodate (according to 2009 periodic analysis average values listed on the website of CLEA Japan, Inc.).
Using 12 OVX rats after preliminary feeding, phenobarbital in a dose of 0.5 mg per 10 g of body weight was administered intraperitoneally to anesthetize the rats. An incision was made in the skin on the upper portion of the knee joint, and then the knee joint was exposed, and a hole approximately 0.5 mm in diameter was made using a dental round bur in the epiphyseal area of the tibia, and then the incision was sutured.
After the surgery, the rats were divided into four groups of three rats each. Group A was reared on feed obtained by adding 3% collagen and 5% DFA III to the standard feed; Group B was reared on feed obtained by only adding the same amount of DFA III; Group C was reared on feed obtained by only adding the same amount of collagen; Group D was reared on the standard feed only.
After one month of feeding, the same anesthesia was performed, and perfusion fixation was performed with 4% paraformaldehyde from the left ventricle in the same manner as the femur experiment. After fixation, the region where the surgery was performed was extracted, and after washing with 0.8 M cacodylate buffer adjusted to pH 7.4, 3D CTR images were taken using the CTR apparatus mentioned above (FIG. 6).
The bone area and the bone marrow area were measured using five images of the osseous defect in the same manner as in Example 4 (Table 6).

[2] = tested on: osteoblastic cell line MC3T3-E1; assay: Effect of DFA III on the number of osteoblastic cells (MTS, absorbance 490 nm) (Example 3); format: cell-based, mouse; conditions: for light absorbance at 490 nm (relative number of the cells): MC3T3-E1
Method: The effect of DFA III on osteoblasts was examined using the osteoblastic cell line MC3T3-E1 isolated from […].
First, 3×10^5 cells of MC3T3-E1 were inoculated in 96 wells containing 90 μL of α-MEM medium containing penicillin (manufactured by Sigma) and streptomycin (manufactured by Sigma) (200 μg/mL). DFA III was added to the culture solution so as to result in concentrations of 10 mM, 50 mM, and 100 mM, and the cells were cultured at 37° C. at a CO2 concentration of 5%. Culturing was performed for five wells each for each of the concentrations, and the number of the cells was counted on day 1, day 4, day 7, and day 14 after culturing.
When counting the number of the cells, the cells were treated with 10 mM trypsin for 30 minutes under the same conditions as the cell culture, and then separated from the well. The cells were then added to 100 μL of MTS solution (manufactured by Promega Corp.), and incubated for 30 minutes under the same conditions as the cell culture, and a light absorbance at the wavelength of 490 nm was measured using a plate reader (“iMark Plate Reader” manufactured by Bio-Rad Laboratories, Inc.). The measured light absorbance represents the relative number of the cells.
The average value of the three from the five wells cultured under the same conditions was taken as the measured value. As a control, the wells were used, where the medium of the wells to which DFA III was not added.

[3] = tested on: ovariectomized animals (OVX); assay: Bone tissue analysis by 3D CTR of the femoral articular head in OVX rats (Example 4); format: in vivo, Wistar rats
Method: Animal experiments were conducted using ovariectomized animals (OVX). The animals used were 48 female Wistar rats with body weight of approximately 350 g. They were used in the experiments after being preliminarily reared on standard feed (CE-2 manufactured by CLEA Japan, Inc.) for one week after undergoing ovariectomy. All experiments were approved by the Animal Experiment Ethics Committee of CLEA Japan, Inc. and were conducted according to the policies thereof. The standard feed CE-2 manufactured by CLEA Japan, Inc. contains 1.06 g of calcium per 100 g of the feed as calcium carbonate and calcium iodate (according to 2009 periodic analysis average values listed on the website of CLEA Japan, Inc.). After preliminary feeding, 12 OVX rats were divided into groups of three rats each. Group A was reared on feed obtained by adding 3% collagen and 5% DFA III to the standard feed; Group B was reared on feed obtained by only adding the same amount of DFA III; Group C was reared on feed obtained by only adding the same amount of collagen; Group D was reared on the standard feed only. One week, two weeks, three weeks, and one month after the start of feeding, phenobarbital in a dose of 0.5 mg per 10 g of body weight was administered intraperitoneally to anesthetize the rats. Perfusion fixation was performed by injecting 4% paraformaldehyde solution diluted with cacodylate buffer of pH 7.4 and perfusing for 5 minutes from the left ventricle. After fixation, the articular head of the femur and the tibia of the lower limbs were extracted. 3D CTR images of the articular head were taken using a 3D Micro X-ray CTR-mCT2 for experimental animals (manufactured by Rigaku Corp.). From the 3D CTR images that were taken, five images of cross-sections in the same direction were selected, and the bone area and bone marrow area in each individual was measured and the average taken (Table 5 and FIG. 5).

[4] = 3% collagen and/or 5% DFA III in standard feed
[5] = 3% collagen and/or 5% DFA III in standard feed, one month, articular head of femur

Structure (SMILES): OC[C@H]1O[C@@]2(CO[C@]3(CO)O[C@H](CO)[C@@H](O)[C@@H]3O2)[C@@H](O)[C@@H]1O [DFA III, Difructose anhydride III]
- Bone area [1, 4]: 90.7 μm^2
- Bone marrow area [1, 4]: 704.8 μm^2
- Total area [1, 4]: 795.5 μm^2
- Proportion of bone in all bone (%) [1]: 11.4%
- proportion of new bone formation greater than control Group D [1]: 4.6%
- light absorbance at 490 nm (relative number of the cells) ([2]; 10 mM DFA III, 1 Day after culture): 0.309
- light absorbance at 490 nm (relative number of the cells) ([2]; 10 mM DFA III, 4 Day after culture): 0.323
- light absorbance at 490 nm (relative number of the cells) ([2]; 10 mM DFA III, 7 Day after culture): 0.388
- light absorbance at 490 nm (relative number of the cells) ([2]; 10 mM DFA III, 14 Day after culture): 0.736
- light absorbance at 490 nm (relative number of the cells) ([2]; 50 mM DFA III, 1 Day after culture): 0.305
- light absorbance at 490 nm (relative number of the cells) ([2]; 50 mM DFA III, 4 Day after culture): 0.380
- light absorbance at 490 nm (relative number of the cells) ([2]; 50 mM DFA III, 7 Day after culture): 0.430
- light absorbance at 490 nm (relative number of the cells) ([2]; 50 mM DFA III, 14 Day after culture): 0.849
- light absorbance at 490 nm (relative number of the cells) ([2]; 100 mM DFA III, 1 Day after culture): 0.321
- light absorbance at 490 nm (relative number of the cells) ([2]; 100 mM DFA III, 4 Day after culture): 0.390
- light absorbance at 490 nm (relative number of the cells) ([2]; 100 mM DFA III, 7 Day after culture): 0.438
- light absorbance at 490 nm (relative number of the cells) ([2]; 100 mM DFA III, 14 Day after culture): 0.988
- effect on cell division of osteoblasts ([2]; MC3T3-E1, conclusion from Table 4): stimulates cell division of osteoblasts
- cell number values versus control group ([2]; day 1, day 4 and day 7 after culturing): control group exhibited higher values
- cell number values versus control group ([2]; day 14 after culturing, 10, 50 and 100 mM): higher values than the control group
- Proportion of bone in articular head (%) ([3]; 3% collagen and/or 5% DFA III in standard feed, one month): 56.1%
- Bone area (average) [3, 5]: 320.0 μm^2
- Bone marrow area (average) [3, 5]: 250.9 μm^2
- Total area [3, 5]: 570.9 μm^2
- CTR images: compact bone and cancellous bone, comparison of the groups ([3]; one month, FIG. 4): No marked difference
- increase of the proportion of bone in the articular head versus control Group D ([3]; one month, compared with standard feed only): 10.2%
- more bone tissue than the group fed standard feed alone ([3]; summary of Example 4): approximately 10%

Reference: patent US20160310578A1, “METHOD OF ACCELERATING OSTEOGENESIS” (Fuji Nihon Seito Corporation, priority 2015, published 2016)
